One data set addresses T1, human amylin receptor (Homo sapiens, UniProt O60896+P30988).
T1 construct: host or cells: CHO-K1/Ga15/AMY3 cells, further stably transfected with a CRE-luciferase plasmid
T1 sequence (P30988 25-474): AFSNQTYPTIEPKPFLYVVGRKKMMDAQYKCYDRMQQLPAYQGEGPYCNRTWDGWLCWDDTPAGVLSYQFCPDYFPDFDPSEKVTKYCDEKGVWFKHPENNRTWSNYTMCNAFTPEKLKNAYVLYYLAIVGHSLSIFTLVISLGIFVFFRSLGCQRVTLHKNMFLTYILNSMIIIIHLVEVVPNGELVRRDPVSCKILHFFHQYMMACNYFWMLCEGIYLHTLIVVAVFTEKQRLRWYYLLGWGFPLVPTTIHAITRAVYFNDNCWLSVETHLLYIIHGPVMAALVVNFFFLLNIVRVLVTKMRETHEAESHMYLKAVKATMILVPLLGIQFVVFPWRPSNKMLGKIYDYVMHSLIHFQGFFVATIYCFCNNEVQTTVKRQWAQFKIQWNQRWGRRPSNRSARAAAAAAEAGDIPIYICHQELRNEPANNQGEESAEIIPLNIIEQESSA
T1 sequence (O60896 24-148 partner): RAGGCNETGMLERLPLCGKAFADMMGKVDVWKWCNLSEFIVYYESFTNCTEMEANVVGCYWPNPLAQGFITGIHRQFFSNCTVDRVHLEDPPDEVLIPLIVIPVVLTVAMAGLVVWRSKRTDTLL
The experiment in a line: Luciferase assay of amylin derivatives in amylin receptor/CRE-luc CHO cell line. Type of data set: cell-based. Particulars: CHO-K1/Ga15/AMY3 CRE-luc cells, 24 hours incubation, F12 medium containing 10% FBS; read-out: EC50.

The nature of data set [1]: Freeze-thaw stability of derivatives (freeze-thaw yield by liquid chromatography). Particulars: for Dissolution property: appearance after dissolution at 0.2 mg/ml in 20 mM phosphate buffer solution (PB) (pH 7.0); for Freeze storage property: appearance after overnight storage at −20° C. and thawing to room temperature, 0.2 mg/ml in 20 mM PB (pH 7.0); for Freeze storage yield: concentration of polypeptide after freezing and thawing / concentration before, by liquid chromatography, −20° C. overnight. Type of data set: physicochemical. In short, it runs like this: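 Lyophilised peptide derivative dissolved at 0.2 mg/ml in 20 mM phosphate buffer, pH 7.0, frozen overnight at −20° C, then thawed at room temperature. Peptide concentration before and after freeze-thaw measured by reversed-phase HPLC on centrifuged supernatant; yield = post-thaw/pre-thaw concentration.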

Experimental findings from patent US20260166128A1, “HUMAN AMYLIN ANALOG, AND DERIVATIVE THEREOF AND USE THEREOF” (priority 2022, published 2026) are described below.

Structures are written as SMILES. Numbered stars: 1 amine (or outer) side, 2 acyl side, 3 side chain; on linkers, the order of the positions; unused ones are H or OH. Bridge positions count the residues as written; N and C are the ends. Square brackets hold non-standard residues; d marks the D form. Side chains are listed from the residue outwards. Peptide text beside a SMILES is read from it. * marks the point of attachment. C20 diacid = O=C(O)CCCCCCCCCCCCCCCCCCC(=O)*; γGlu = O=C(O)[C@H](CCC(=O)[*:2])N[*:1]; Hyp = O=C(O)[C@@H]1C[C@@H](O)CN1; Dap = NC[C@H](N)C(=O)O; AEEA = NCCOCCOCC(=O)O

As usually defined, the EC50 is the concentration needed to bring the measured effect to its halfway point.

Procedure for human amylin receptor: The experiment was intended to detect the activity or efficacy of the amylin derivatives on a human amylin receptor in vitro by luciferase assay.
50 μL of growth medium (F12 medium containing 10% FBS) was added into each well of a white 96-well plate, and the stably transfected amylin/CRE-lue CHO cells were inoculated into the white 96-well plate at a density of about 20,000 cells/well for activity determination.

Consider `CC[C@H](C)[C@H](NC(=O)[C@@H]1CCCN1C(=O)CNC(=O)[C@H](CC(C)C)NC(=O)[C@H](CCCCNC(=O)COCCOCCNC(=O)COCCOCCNC(=O)CC[C@H](NC(=O)CCCCCCCCCCCCCCCCCCC(=O)O)C(=O)O)NC(=O)[C@H](CC(N)=O)NC(=O)[C@H](CO)NC(=O)[C@H](CO)NC(=O)[C@H](Cc1c[nH]cn1)NC(=O)[C@H](CCCNC(=N)N)NC(=O)[C@H](CC(C)C)NC(=O)[C@H](Cc1ccccc1)NC(=O)[C@H](CC(=O)O)NC(=O)[C@H](C)NC(=O)[C@H](CC(C)C)NC(=O)[C@H](CCCNC(=N)N)NC(=O)[C@H](CCC(N)=O)NC(=O)[C@@H](NC(=O)[C@H](C)NC(=O)[C@@H]1CSSC[C@H](NC(=O)[C@@H](N)CCCNC(=N)N)C(=O)N[C@@H](CC(N)=O)C(=O)N[C@@H]([C@@H](C)O)C(=O)N[C@@H](C)C(=O)N[C@@H]([C@@H](C)O)C(=O)N1)[C@@H](C)O)C(=O)N[C@@H](CC(C)C)C(=O)N1CCC[C@H]1C(=O)N1CCC[C@H]1C(=O)N[C@H](C(=O)N[C@@H](CC(N)=O)C(=O)N[C@H](C(=O)NCC(=O)N[C@@H](CO)C(=O)N[C@@H](CC(N)=O)C(=O)N[C@H](C(=O)N1C[C@H](O)C[C@H]1C(N)=O)[C@@H](C)O)C(C)C)[C@@H](C)O` [PD087] (H-RCNTATCATQRLADFLRHSSNK([AEEA-AEEA-γGlu-C20 diacid])LGPILPPTNVGSNT[Hyp]-NH2; disulfide 2-7 (inferred); N-terminus assumed), for which, on human amylin receptor, the EC50 was 0.032 nM. In data set [1], the Dissolution property entry is “Clear”, the Freeze storage property entry is on record as “Clear” and the Freeze storage yield was determined as 102.65%.
As for `CC[C@H](C)[C@H](NC(=O)[C@@H]1CCCN1C(=O)[C@H](CCCCNC(=O)CC[C@H](NC(=O)CCCCCCCCCCCCCCCCCCC(=O)O)C(=O)O)NC(=O)[C@H](CC(C)C)NC(=O)[C@H](CC(N)=O)NC(=O)[C@H](CC(N)=O)NC(=O)[C@H](CO)NC(=O)[C@H](CO)NC(=O)[C@H](Cc1c[nH]cn1)NC(=O)[C@H](CCCNC(=N)N)NC(=O)[C@H](CC(C)C)NC(=O)[C@H](Cc1ccccc1)NC(=O)[C@H](CCC(=O)O)NC(=O)[C@H](C)NC(=O)[C@H](CC(C)C)NC(=O)[C@H](CCCNC(=N)N)NC(=O)[C@H](CCC(N)=O)NC(=O)[C@@H](NC(=O)[C@H](C)NC(=O)[C@@H]1CSSC[C@H](NC(=O)[C@@H](N)CCCNC(=N)N)C(=O)N[C@@H](CC(N)=O)C(=O)N[C@@H]([C@@H](C)O)C(=O)N[C@@H](C)C(=O)N[C@@H]([C@@H](C)O)C(=O)N1)[C@@H](C)O)C(=O)N[C@@H](CC(C)C)C(=O)N1CCC[C@H]1C(=O)N1CCC[C@H]1C(=O)N[C@H](C(=O)N[C@@H](CC(N)=O)C(=O)N[C@H](C(=O)NCC(=O)N[C@@H](CO)C(=O)N[C@@H](CC(N)=O)C(=O)N[C@H](C(=O)N1CCC[C@H]1C(N)=O)[C@@H](C)O)C(C)C)[C@@H](C)O` [PD009] (H-RCNTATCATQRLAEFLRHSSNNLK([γGlu-C20 diacid])PILPPTNVGSNTP-NH2; disulfide 2-7 (inferred)), the EC50 on human amylin receptor worked out at 0.067 nM. In data set [1], the Dissolution property entry is “Clear” and the Freeze storage property entry is given as “Clear”.
`CC[C@H](C)[C@H](NC(=O)[C@@H]1CCCN1C(=O)[C@H](CCCCNC(=O)CC[C@H](NC(=O)CCCCCCCCCCCCCCCCCCC(=O)O)C(=O)O)NC(=O)[C@H](CC(C)C)NC(=O)[C@H](CC(N)=O)NC(=O)[C@H](CC(N)=O)NC(=O)[C@H](CO)NC(=O)[C@H](CO)NC(=O)[C@H](Cc1c[nH]cn1)NC(=O)[C@H](CCCNC(=N)N)NC(=O)[C@H](CC(C)C)NC(=O)[C@H](Cc1ccccc1)NC(=O)[C@H](CCC(=O)O)NC(=O)[C@H](C)NC(=O)[C@H](CC(C)C)NC(=O)[C@H](CCCNC(=N)N)NC(=O)[C@H](CCC(N)=O)NC(=O)[C@@H](NC(=O)[C@H](C)NC(=O)[C@@H]1CSSC[C@H](NC(=O)[C@@H](N)CCCNC(=N)N)C(=O)N[C@@H](CC(N)=O)C(=O)N[C@@H]([C@@H](C)O)C(=O)N[C@@H](C)C(=O)N[C@@H]([C@@H](C)O)C(=O)N1)[C@@H](C)O)C(=O)N[C@@H](CC(C)C)C(=O)N1CCC[C@H]1C(=O)N1CCC[C@H]1C(=O)N[C@H](C(=O)N[C@@H](CC(N)=O)C(=O)N[C@H](C(=O)NCC(=O)N[C@@H](CO)C(=O)N[C@@H](CC(N)=O)C(=O)N[C@H](C(=O)N[C@@H](Cc1ccc(O)cc1)C(N)=O)[C@@H](C)O)C(C)C)[C@@H](C)O` [PD017] (H-RCNTATCATQRLAEFLRHSSNNLK([γGlu-C20 diacid])PILPPTNVGSNTY-NH2; disulfide 2-7 (inferred); N-terminus assumed): the EC50 on human amylin receptor was determined as 0.772 nM. Besides, in data set [1], the Dissolution property result is “Clear”, the Freeze storage property result was “Muddy” and the Freeze storage yield came out at 100.81%.
For `CC[C@H](C)[C@H](NC(=O)[C@@H]1CCCN1C(=O)[C@H](CCCCNC(=O)CC[C@H](NC(=O)CCCCCCCCCCCCCCCCCCC(=O)O)C(=O)O)NC(=O)[C@H](CC(C)C)NC(=O)[C@H](CC(N)=O)NC(=O)[C@H](CC(N)=O)NC(=O)[C@H](CO)NC(=O)[C@H](CO)NC(=O)[C@H](Cc1c[nH]cn1)NC(=O)[C@H](CCCNC(=N)N)NC(=O)[C@H](CC(C)C)NC(=O)[C@H](Cc1ccccc1)NC(=O)[C@H](CN)NC(=O)[C@H](C)NC(=O)[C@H](CC(C)C)NC(=O)[C@H](CCCNC(=N)N)NC(=O)[C@H](CCC(N)=O)NC(=O)[C@@H](NC(=O)[C@H](C)NC(=O)[C@@H]1CSSC[C@H](NC(=O)[C@@H](N)CCCNC(=N)N)C(=O)N[C@@H](CC(N)=O)C(=O)N[C@@H]([C@@H](C)O)C(=O)N[C@@H](C)C(=O)N[C@@H]([C@@H](C)O)C(=O)N1)[C@@H](C)O)C(=O)N[C@@H](CC(C)C)C(=O)N1CCC[C@H]1C(=O)N1CCC[C@H]1C(=O)N[C@H](C(=O)N[C@@H](CC(N)=O)C(=O)N[C@H](C(=O)NCC(=O)N[C@@H](CO)C(=O)N[C@@H](CC(N)=O)C(=O)N[C@H](C(=O)N1CCC[C@H]1C(N)=O)[C@@H](C)O)C(C)C)[C@@H](C)O` [PD045] (H-RCNTATCATQRLA[Dap]FLRHSSNNLK([γGlu-C20 diacid])PILPPTNVGSNTP-NH2; disulfide 2-7 (inferred); N-terminus assumed), in that order: 0.364 nM, “Clear”, “Clear” and 95.59%.
